From patent EP2601963B1, “N-ISOVALEROYL-L-GLUTAMYL-L-TRYPTOPHAN AS AN AGENT INHIBITING THE FORMATION OF ULCERS IN THE STOMACH AND THE DUODENUM” (Obshestvo S Ogranichennoj Otvetstvennostju "CytoNIR", priority 2010, dated 2015)

Assays:
Type in all cases: in vivo, male Wistar rats
[1] = system: superoxide dismutase (SODM); experiment: Water-immersion stress model: superoxide dismutase activity in blood serum
Method: (§1) Intensity of the free radical oxidation was evaluated by the malondialdehyde (MDA) accumulation in blood serum [R.A. Temirbulatov, Ye.I. Seleznev Method for Increasing the Intensity of Free Radical Oxidation in Lipid-Containing Blood Components and its Diagnostic Significance // Labor. Delo, 1981, # 4, p.p. 209 - 211]. The state of the antioxidant systems was evaluated by the superoxide dismutase (SODM) activity [S. Chevari , I. Chaba, Y. Sekei. The Role of Superoxide Dismutase in Cellular Oxidative Processes and Method of its Determination in Biological Materials // Labor. Delo, 1985, # 11, p.p. 678 - 681].

[2] = system: malondialdehyde (MDA); experiment: Water-immersion stress model: malondialdehyde in blood serum
Method: as §1

[3] = system: Alanine aminotransferase (ALT); experiment: Water-immersion stress model: alanine aminotransferase activity in blood serum
Method: (§2) Alanine aminotransferase (ALT) and alkaline phosphatase (AP) activity in blood serum was determined with "Vital Development Corporation" kits.

[4] = system: alkaline phosphatase (AP); experiment: Water-immersion stress model: alkaline phosphatase activity in blood serum
Method: as §2

[5] = Water-immersion stress model: weight of organs
Method: (§3) Intensity of changes caused by stressors in the internal organs of the animals was evaluated by the relative weight changes of the adrenal glands, thymus, and spleen calculated as a ratio of the organ's weight to the body weight of the animal multiplied by 100.

[6] = system: superoxide dismutase (SODM); experiment: Indomethacin-induced ulcer model, preventive: superoxide dismutase activity in blood serum
Method: as §1
(§4) The efficacy of the course of preventive treatment with the claimed composition was evaluated 24 hrs. post indomethacin administration. The study was conducted as in Example 1.

[7] = system: malondialdehyde (MDA); experiment: Indomethacin-induced ulcer model, preventive: malondialdehyde in blood serum
Method: as §1, §4

[8] = system: Alanine aminotransferase (ALT); experiment: Indomethacin-induced ulcer model, preventive: alanine aminotransferase activity in blood serum
Method: as §2, §4

[9] = system: alkaline phosphatase (AP); experiment: Indomethacin-induced ulcer model, preventive: alkaline phosphatase activity in blood serum
Method: as §2, §4

[10] = Indomethacin-induced ulcer model, preventive: weight of organs
Method: as §3, §4

[11] = system: superoxide dismutase (SODM); experiment: Indomethacin-induced ulcer model, therapeutic: superoxide dismutase activity in blood serum; settings: treatment 5 days after Indomethacin
Method: as §1
(§5) 2 ml/kg of the ulcerogenic dose of indomethacin equal to 30 mg/kg was administered intraperitoneally. The treatment started 24 hrs. post indomethacin administration and continued for 5 days. The animals in the experimental groups received N-isovaleroyl-L-glutamyl-L-tryptophan or the comparator drug Sucralfate, and the control group received distilled water.

[12] = system: malondialdehyde (MDA); experiment: Indomethacin-induced ulcer model, therapeutic: malondialdehyde in blood serum; settings: for MDA: treatment 5 days after Indomethacin
Method: as §1, §5

[13] = system: Alanine aminotransferase (ALT); experiment: Indomethacin-induced ulcer model, therapeutic: alanine aminotransferase activity in blood serum; settings: treatment 5 days after Indomethacin
Method: as §2, §5

[14] = system: alkaline phosphatase (AP); experiment: Indomethacin-induced ulcer model, therapeutic: alkaline phosphatase activity in blood serum; settings: treatment 5 days after Indomethacin
Method: as §2, §5

[15] = Indomethacin-induced ulcer model, therapeutic: weight of organs; settings: treatment 5 days after Indomethacin
Method: as §3, §5

[16] = Indomethacin intoxication, therapeutic: changes in body weight; settings: Indomethacin 30 mg/kg, Before Indomethacin = 100
Method: as §5
Some loss of weight of the intact animals could be contributed to the 18-hr fasting. […]

[17] = blood serum, 0.1 mkg/kg + Indomethacin 20 mg/kg, preventive
[18] = blood serum, 10 mkg/kg + Indomethacin 20 mg/kg, preventive
[19] = preventive administration, indomethacin 20 mg/kg
[20] = 0.1 mkg/kg + Indomethacin 20 mg/kg
[21] = 10 mkg/kg + Indomethacin 20 mg/kg
[22] = 200 mg/kg + Indomethacin 20 mg/kg

Question: Which results are given for “N-isovaleroyl-L-glutamyl-L-tryptophan [VGT preparation]”?
Answer: SODM ([1]; 0.1 mkg/kg + stress): 2.20 ± 0.09 con. units/ml; SODM ([1]; 10 mkg/kg + stress): 2.35 ± 0.11 con. units/ml; MDA ([2]; 0.1 mkg/kg + stress): 0.130 ± 0.019 OD532; MDA ([2]; 10 mkg/kg + stress): 0.128 ± 0.020 OD532; ALT ([3]; 0.1 mkg/kg + stress): 1.55 ± 0.15 mM/hr-L; ALT ([3]; 10.0 mkg/kg + stress): 1.78 ± 0.08 mM/hr-L; AP ([4]; 0.1 mkg/kg + stress): 1100 ± 54 nM/s-L; AP ([4]; 10.0 mkg/kg + stress): 1123 ± 55 nM/s-L; Adrenal Glands Rel Wt. ([5]; 0.1 mkg/kg + stress): 0.017 ± 0.001 %; Adrenal Glands Wt. ([5]; 0.1 mkg/kg + stress): 40.8 ± 1.1 mg; Spleen Rel Wt. ([5]; 0.1 mkg/kg + stress): 0.37 ± 0.06 %; Spleen Wt. ([5]; 0.1 mkg/kg + stress): 0.872 ± 0.066 g; Thymus Rel Wt. ([5]; 0.1 mkg/kg + stress): 0.124 ± 0.010 %; Thymus Wt. ([5]; 0.1 mkg/kg + stress): 0.307 ± 0.028 g; reducing adrenal weight compared to that of the control animals ([5]; 0.1 mkg/kg + stress): 16 - 17%; Adrenal Glands Rel Wt. ([5]; 10.0 mkg/kg + stress): 0.018 ± 0.001 %; Adrenal Glands Wt. ([5]; 10.0 mkg/kg + stress): 45.2 ± 2.2 mg; Spleen Rel Wt. ([5]; 10.0 mkg/kg + stress): 0.41 ± 0.03%; Spleen Wt. ([5]; 10.0 mkg/kg + stress): 0.977 ± 0.082 g; Thymus Rel Wt. ([5]; 10.0 mkg/kg + stress): 0.154 ± 0.008%; Thymus Wt. ([5]; 10.0 mkg/kg + stress): 0.350 ± 0.022 g; lowered the relative weight of the spleen compared to that of the intact animals ([5]; small doses + stress): 24%; SODM [6, 17]: 2.50 ± 0.05 con. units/ml; SODM [6, 18]: 2.58 ± 0.14 con. units/ml; increased the activity of SODM compared to control animals [6, 19]: 1.6 times; MDA [7, 17]: 0.124 ± 0.009 OD532; MDA [7, 18]: 0.158 ± 0.030 OD532; reduced the final LP-MDA product concentration compared to control animals [7, 19]: 14%; ALT [8, 20]: 1.04 ± 0.06 mM/hr-L; ALT [8, 21]: 1.08 ± 0.06 mM/hr-L; AP [9, 20]: 1108 ± 91 nM/s-L; AP [9, 21]: 1180 ± 91 nM/s-L; Adrenal Glands Rel. wt. [10, 20]: 0.017 ± 0.001%; Adrenal Glands Wt. [10, 20]: 37.1 ± 1.3 mg; Liver Rel. wt. [10, 20]: 2.99 ± 0.060%; Liver Wt. [10, 20]: 6.549 ± 0.282 g; Spleen Rel. wt. [10, 20]: 0.433 ± 0.041%; Spleen Wt. [10, 20]: 0.912 ± 0.044 g; Thymus Rel. wt. [10, 20]: 0.124 ± 0.007 %; Thymus Wt. [10, 20]: 0.277 ± 0.018 g; Adrenal Glands Rel. wt. [10, 21]: 0.018 ± 0.001%; Adrenal Glands Wt. [10, 21]: 38.5 ± 1.4 mg; Liver Rel. wt. [10, 21]: 3.053 ± 0.065%; Liver Wt. [10, 21]: 6.770 ± 0.335 g; Spleen Rel. wt. [10, 21]: 0.434 ± 0.018%; Spleen Wt. [10, 21]: 0.926 ± 0.060 g; Thymus Rel. wt. [10, 21]: 0.133 ± 0.009%; Thymus Wt. [10, 21]: 0.320 ± 0.030 g; SODM ([11]; 0.1 mkg/kg): 3.1 ± 0.11 conv. units/ml; SODM ([11]; 10.0 mkg/kg): 3.06 ± 0.16 conv. units/ml; MDA ([12]; blood serum, 0.1 mkg/kg): 0.169 ± 0.012 OD532; MDA ([12]; blood serum, 10.0 mkg/kg): 0.217 ± 0.030 OD532; reduced MDA content ([12]; small dose, treatment after Indomethacin): 70%; ALT ([13]; 0.1 mkg/kg): 0.75 ± 0.09 mM/h*L; ALT ([13]; 10.0 mkg/kg): 0.66 ± 0.11 mM/h*L; AP ([14]; 0.1 mkg/kg): 1357 ± 58 nM/c*L; AP ([14]; 10.0 mkg/kg): 1368 ± 148 nM/c*L; Adrenal Glands Rel. wt. ([15]; 0.1 mkg/kg): 0.019 ± 0.002%; Adrenal Glands Wt. ([15]; 0.1 mkg/kg): 41.8 ± 5.1; Liver Rel. wt. ([15]; 0.1 mkg/kg): 3.27 ±0.18%; Liver Wt. ([15]; 0.1 mkg/kg): 7.062 ± 0.411 g; Spleen Rel. wt. ([15]; 0.1 mkg/kg): 0.48 ± 0.03%; Spleen Wt. ([15]; 0.1 mkg/kg): 1.061 ± 0.085 g; Thymus Rel. wt. ([15]; 0.1 mkg/kg): 0.081 ± 0.007%; Thymus Wt. ([15]; 0.1 mkg/kg): 0.173 ± 0.018 g; Adrenal Glands Rel. wt. ([15]; 10.0 mkg/kg): 0.022 ± 0.002%; Adrenal Glands Wt. ([15]; 10.0 mkg/kg): 48.3 ± 2.2; Liver Rel. wt. ([15]; 10.0 mkg/kg): 3.76 ± 0.020 %; Liver Wt. ([15]; 10.0 mkg/kg): 8.310 ± 0.426 g; Spleen Rel. wt. ([15]; 10.0 mkg/kg): 0.56 ± 0.05%; Spleen Wt. ([15]; 10.0 mkg/kg): 1.233 ± 0.104 g; Thymus Rel. wt. ([15]; 10.0 mkg/kg): 0.078 ± 0.008%; Thymus Wt. ([15]; 10.0 mkg/kg): 0.179 ± 0.032 g; Body weight In 5 days ([16]; 0.1 mkg/kg): 84.4 ± 2.3; Body weight In 5 days ([16]; 10.0 mkg/kg): 84.1 ± 3.0

Question: Which results are given for “aluminum complex of beta-D-fructofuranosyl-alpha-D-glucopyranoside octakis (hydrosulfate) [Sucralfate]”?
Answer: SODM ([1]; 200 mg/kg + stress): 2.32 ± 0.11 con. units/ml; MDA ([2]; 200 mg/kg + stress): 0.147 ± 0.007 OD532; ALT ([3]; 200 mg/kg + stress): 1.57 ± 0.06 mM/hr-L; AP ([4]; 200 mg/kg + stress): 1113 ± 77 nM/s-L; Adrenal Glands Rel Wt. ([5]; 200 mg/kg + stress): 0.017 ± 0.001 %; Adrenal Glands Wt. ([5]; 200 mg/kg + stress): 41.6 ± 2.7 mg; Spleen Rel Wt. ([5]; 200 mg/kg + stress): 0.40 ± 0.02%; Spleen Wt. ([5]; 200 mg/kg + stress): 0.974 ± 0.057 g; Thymus Rel Wt. ([5]; 200 mg/kg + stress): 0.140 ± 0.007%; Thymus Wt. ([5]; 200 mg/kg + stress): 0.327 ± 0.016 g; SODM [6, 22]: 2.68 ± 0.14 con. units/ml; MDA [7, 22]: 0.134 ± 0.024 OD532; ALT [8, 22]: 1.05 ± 0.05 mM/hr-L; AP [9, 22]: 931 ± 108 nM/s-L; Adrenal Glands Rel. wt. [10, 22]: 0.017 ± 0.001%; Liver Rel. wt. [10, 22]: 3.259± 0.049%; Liver Wt. [10, 22]: 7.702 ± 0.224 g; Spleen Rel. wt. [10, 22]: 0.490 ± 0.020%; Spleen Wt. [10, 22]: 1.070 ± 0.041 g; Thymus Rel. wt. [10, 22]: 0.130 ± 0.009%; Thymus Wt. [10, 22]: 0.306 ± 0.023 g; SODM ([11]; 200 mg/kg): 2.66 ± 0.11 conv. units/ml; MDA ([12]; 200 mg/kg): 0.155 ± 0.037 OD532; ALT ([13]; 200 mg/kg): 0.69 ± 0.05 mM/h*L; AP ([14]; 200 mg/kg): 1260 ± 104 nM/c*L; Adrenal Glands Rel. wt. ([15]; 200 mg/kg): 0.023± 0.002%; Adrenal Glands Wt. ([15]; 200 mg/kg): 50.1 ± 3.2; Liver Rel. wt. ([15]; 200 mg/kg): 3.23 ± 0.13%; Liver Wt. ([15]; 200 mg/kg): 7.158 ± 0.330 g; Spleen Rel. wt. ([15]; 200 mg/kg): 0.57 ± 0.04%; Spleen Wt. ([15]; 200 mg/kg): 1.260 ± 0.083 g; Thymus Rel. wt. ([15]; 200 mg/kg): 0.070 ± 0.005 %; Thymus Wt. ([15]; 200 mg/kg): 0.155 ± 0.011 g; Body weight In 5 days ([16]; 200 mg/kg): 86.6 ± 2.5
